Measured values from patent US20260125378A2, “Heterocyclic Compounds” (BeOne Medicines I GmbH, priority 2023, published 2026).
pIC50: −log10 of the molar value.

Key:
[1] = target: T1, Full length DGKζ (in-house protein M1-V929) (Homo sapiens, UniProt Q13574); experiment: Biochemical DGK IC50 assay (ADP-Glo, lipid micelle substrate), DGKζ; conditions: 1 hour preincubation, 1 hour reaction, room temperature
T1 construct: His (N); TEV site (N); made in house; host or cells: Sf9 insect cells (Bac-to-Bac baculovirus)
How it was run: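 Full-length human DGKζ (M1-V929, His-TEV tagged, Sf9 baculovirus-expressed) with DAG/PS lipid micelle substrate in octyl glucoside, at room temperature in 50 mM HEPES, 10 mM MgCl2, 0.01 mM CaCl2 buffer.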

[2] = target: T2, Full length DGKα (D21-10BG, SignalChem) (Homo sapiens, UniProt P23743); experiment: Biochemical DGK IC50 assay (ADP-Glo, lipid micelle substrate), DGKα; conditions: 1 hour preincubation, 1 hour reaction, room temperature
T2 construct: Full length DGKα (D21-10BG, SignalChem); purchased SignalChem D21-10BG
How it was run: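 Full-length human DGKα with DAG/PS lipid micelle substrate (in octyl glucoside buffer), reacted 1 h at room temperature in 50 mM HEPES, 10 mM MgCl2, 0.01 mM CaCl2, 0.1 mM Na3VO4, 0.01% BSA, 0.005% Tween-20. ADP formed read by ADP-Glo luminescence; IC50 from inhibition across increasing compound concentrations.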

T2 sequence (P23743 whole entry): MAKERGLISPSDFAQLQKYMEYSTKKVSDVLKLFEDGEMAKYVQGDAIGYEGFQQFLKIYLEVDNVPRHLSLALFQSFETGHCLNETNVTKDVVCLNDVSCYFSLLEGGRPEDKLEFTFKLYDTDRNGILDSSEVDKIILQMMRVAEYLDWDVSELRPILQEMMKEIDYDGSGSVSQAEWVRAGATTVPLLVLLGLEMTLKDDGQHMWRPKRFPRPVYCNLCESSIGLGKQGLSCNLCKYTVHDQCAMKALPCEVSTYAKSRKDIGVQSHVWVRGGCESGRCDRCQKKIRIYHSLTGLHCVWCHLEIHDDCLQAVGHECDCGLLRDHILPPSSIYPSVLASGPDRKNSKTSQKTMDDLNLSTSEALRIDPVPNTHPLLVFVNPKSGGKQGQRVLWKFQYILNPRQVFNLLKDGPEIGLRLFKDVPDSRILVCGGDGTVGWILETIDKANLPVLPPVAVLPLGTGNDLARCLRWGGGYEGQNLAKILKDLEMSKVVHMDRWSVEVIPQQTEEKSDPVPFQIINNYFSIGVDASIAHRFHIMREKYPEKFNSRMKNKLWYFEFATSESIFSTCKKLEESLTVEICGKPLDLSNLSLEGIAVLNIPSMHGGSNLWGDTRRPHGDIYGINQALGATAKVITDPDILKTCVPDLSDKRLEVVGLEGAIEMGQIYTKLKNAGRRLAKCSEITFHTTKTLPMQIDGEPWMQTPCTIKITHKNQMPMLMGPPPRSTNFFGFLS
T1 sequence (Q13574 1-929 isoform Q13574-4): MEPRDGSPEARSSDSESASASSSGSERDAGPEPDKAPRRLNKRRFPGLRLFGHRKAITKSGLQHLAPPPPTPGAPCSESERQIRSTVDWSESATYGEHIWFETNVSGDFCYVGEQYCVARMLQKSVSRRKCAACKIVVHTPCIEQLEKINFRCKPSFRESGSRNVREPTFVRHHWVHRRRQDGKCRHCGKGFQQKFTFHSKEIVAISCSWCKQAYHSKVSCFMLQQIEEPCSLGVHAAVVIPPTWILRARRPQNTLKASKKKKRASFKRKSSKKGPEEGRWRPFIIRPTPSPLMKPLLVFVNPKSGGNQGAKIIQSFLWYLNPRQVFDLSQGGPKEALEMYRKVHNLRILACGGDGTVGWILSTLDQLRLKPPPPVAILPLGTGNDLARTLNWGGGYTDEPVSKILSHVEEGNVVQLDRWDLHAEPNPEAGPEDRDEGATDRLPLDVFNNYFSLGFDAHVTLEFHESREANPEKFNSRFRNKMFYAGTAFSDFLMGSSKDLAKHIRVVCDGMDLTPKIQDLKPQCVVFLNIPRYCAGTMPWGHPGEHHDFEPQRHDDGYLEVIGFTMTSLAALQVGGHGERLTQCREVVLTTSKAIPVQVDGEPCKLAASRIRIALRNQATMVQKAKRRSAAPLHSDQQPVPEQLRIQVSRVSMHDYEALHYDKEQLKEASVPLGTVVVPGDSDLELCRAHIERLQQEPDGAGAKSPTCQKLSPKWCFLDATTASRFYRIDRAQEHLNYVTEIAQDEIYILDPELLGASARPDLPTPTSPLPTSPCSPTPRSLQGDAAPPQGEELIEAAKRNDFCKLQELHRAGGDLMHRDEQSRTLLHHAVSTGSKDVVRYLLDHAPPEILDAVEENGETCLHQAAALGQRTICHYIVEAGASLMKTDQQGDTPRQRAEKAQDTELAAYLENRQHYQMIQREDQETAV

Row | Structure (SMILES) | pIC50 [1] | pIC50 [2]
1 | CCn1c(CC#N)nc2c(N3C[C@@H](C)N(C(C)c4cc5c(cn4)OCC(C)(C)O5)C[C@@H]3C)nc(=O)n(C)c21 (stereo partly drawn) [Compound A75, 2-(6-((2S,5R)-4-(1-(2,2-dimethyl-2,3-dihydro-[1,4]dioxino[2,3-c]pyridin-7-yl)ethyl)-2,5-dimethylpiperazin-1-yl)-9-ethyl-3-methyl-2-oxo-3,9-dihydro-2H-purin-8-yl)acetonitrile] | 6.60 | < 3.82
2 | CC[C@H]1CN(C(C)c2ccc(C(F)(F)F)cc2)[C@H](CC)CN1c1nc(=O)n(C)c2c1nc(CC#N)n2C (single isomer, unassigned) [Compound A149a] | 7.43 | 5.79
3 | CC(c1ccc2c(c1)OCCO2)N1C[C@H](C)N(c2nc(=O)n(C)c3c2nc(CC#N)n3C)C[C@H]1C (single isomer, unassigned) [Compound A58b] | 5.78 | 4.04
4 | CCn1c(CC#N)nc2c(N3C[C@@H](C)N(C(C)c4ccc5c(c4F)OC(C)(C)O5)C[C@@H]3C)nc(=O)n(C)c21 (single isomer, unassigned) [Compound A175a] | 6.54 | 4.43
5 | CC(c1ccc(F)cc1C(F)(F)F)N1C[C@H](C)N(c2cc(=O)n(C)c3[nH]c(CC#N)nc23)C[C@H]1C (single isomer, unassigned) [Compound A9b] | 6.77 | < 5.00
6 | CC[C@H]1CN(C(C)c2ccc3ncc(C)nc3c2)[C@H](CC)CN1c1nc(=O)n(C)c2c1nc(CC#N)n2C (single isomer, unassigned) [Compound A51a] | 8.52 | 4.85
7 | CCn1c(CC#N)nc2c(N3C[C@@H](C)N(C(C)c4cccc5c4OC(C)(C)O5)C[C@@H]3C)nc(=O)n(C)c21 (stereo partly drawn) [Compound A186, 2-(6-((2S,5R)-4-(1-(2,2-dimethylbenzo[d][1,3]dioxol-4-yl)ethyl)-2,5-dimethylpiperazin-1-yl)-9-ethyl-3-methyl-2-oxo-3,9-dihydro-2H-purin-8-yl)acetonitrile] | 6.81 | 3.84
8 | CC(c1ccc2nccnc2c1)N1C[C@H](C)N(c2cc(=O)n(C)c3c2nc(CC#N)n3C)C[C@H]1C (single isomer, unassigned) [Compound A1a] | 8.05 | 4.83
9 | CCn1c(CC#N)nc2c(N3C[C@@H](C)N(C(C)c4ccc5c(c4)C(=O)N(C)C5)C[C@@H]3C)nc(=O)n(C)c21 (stereo partly drawn) [Compound A100, 2-(6-((2S,5R)-2,5-dimethyl-4-(1-(2-methyl-3-oxoisoindolin-5-yl)ethyl)piperazin-1-yl)-9-ethyl-3-methyl-2-oxo-3,9-dihydro-2H-purin-8-yl)acetonitrile] | 5.39 | < 3.82
10 | CC(c1ccc2nccnc2c1)N1C[C@H](C)N(c2nc(=O)n(C)c3c2nc(CC#N)n3C)C[C@H]1C (stereo partly drawn) [Compound A48, 2-(6-((2S,5R)-2,5-dimethyl-4-(1-(quinoxalin-6-yl)ethyl)piperazin-1-yl)-3,9-dimethyl-2-oxo-3,9-dihydro-2H-purin-8-yl)acetonitrile] | 7.54 | 4.35
11 | CCn1c(CC#N)nc2c(N3C[C@@H](C)N(C(C)c4ccc5c(c4)OC(C)(C)C5)C[C@@H]3C)nc(=O)n(C)c21 (stereo partly drawn) [Compound A97, 2-(6-((2S,5R)-4-(1-(2,2-dimethyl-2,3-dihydrobenzofuran-6-yl)ethyl)-2,5-dimethylpiperazin-1-yl)-9-ethyl-3-methyl-2-oxo-3,9-dihydro-2H-purin-8-yl)acetonitrile] | 7.96 | 4.29
12 | CCn1c(CC#N)nc2c(N3C[C@@H](C)N(C(C)c4ccc(C)c(C)n4)C[C@@H]3C)nc(=O)n(C)c21 (stereo partly drawn) [Compound A138, 2-(6-((2S,5R)-4-(1-(5,6-dimethylpyridin-2-yl)ethyl)-2,5-dimethylpiperazin-1-yl)-9-ethyl-3-methyl-2-oxo-3,9-dihydro-2H-purin-8-yl)acetonitrile] | 6.02 | < 3.82
13 | CC[C@H]1CN(C(C)c2ccc(F)cc2C(F)(F)F)[C@H](CC)CN1c1nc(=O)n(C)c2c1nc(CC#N)n2C (single isomer, unassigned) [Compound A34b] | 8.05 | < 5.00
14 | CCn1c(=O)nc(N2C[C@@H](C)N(C(C)c3ccc4ncc(C)nc4c3)C[C@@H]2C)c2nc(CC#N)n(C)c21 (single isomer, unassigned) [Compound A53b] | 6.18 | < 3.82
15 | CC[C@@H]1CN(c2nc(=O)n(C)c3c2nc(CC#N)n3C)[C@@H](C)CN1C(C)c1ccc2c(n1)OC(C)(C)CO2 (single isomer, unassigned) [Compound A159a] | 7.60 | 4.56
16 | CCn1c(CC#N)nc2c(N3C[C@@H](C)N(C(C)c4cccc(OC)c4)C[C@@H]3C)nc(=O)n(C)c21 (stereo partly drawn) [Compound A46, 2-(9-ethyl-6-((2S,5R)-4-(1-(3-methoxyphenyl)ethyl)-2,5-dimethylpiperazin-1-yl)-3-methyl-2-oxo-3,9-dihydro-2H-purin-8-yl)acetonitrile] | 6.52 | < 3.82
17 | CCn1c(CC#N)nc2c(N3C[C@@H](C)N(C(C)c4ccc5c(c4)C(=O)N(C)CC5)C[C@@H]3C)nc(=O)n(C)c21 (stereo partly drawn) [Compound A93, 2-(6-((2S,5R)-2,5-dimethyl-4-(1-(2-methyl-1-oxo-1,2,3,4-tetrahydroisoquinolin-7-yl)ethyl)piperazin-1-yl)-9-ethyl-3-methyl-2-oxo-3,9-dihydro-2H-purin-8-yl)acetonitrile] | 6.38 | < 3.82
18 | CCn1c(CC#N)nc2c(N3C[C@@H](C)N(C(C)c4ccc(N5CCOCC5)cc4)C[C@@H]3C)nc(=O)n(C)c21 (stereo partly drawn) [Compound A143, 2-(6-((2S,5R)-2,5-dimethyl-4-(1-(4-morpholinophenyl)ethyl)piperazin-1-yl)-9-ethyl-3-methyl-2-oxo-3,9-dihydro-2H-purin-8-yl)acetonitrile] | < 5.00 | < 3.82
19 | CCn1c(CC#N)nc2c(N3C[C@@H](C)N(C(C)c4cccc(C5CC5)c4)C[C@@H]3C)nc(=O)n(C)c21 (stereo partly drawn) [Compound A125, 2-(6-((2S,5R)-4-(1-(3-cyclopropylphenyl)ethyl)-2,5-dimethylpiperazin-1-yl)-9-ethyl-3-methyl-2-oxo-3,9-dihydro-2H-purin-8-yl)acetonitrile] | 7.38 | < 3.82
20 | CC[C@@H]1CN(c2nc(=O)n(C)c3c2nc(CC#N)n3C)[C@@H](C)CN1C(C)c1ccc2c(c1)OC(C)(C)CO2 (single isomer, unassigned) [Compound A63a] | 8.70 | 4.99
21 | Cc1cnc2ccc(C(C)N3C[C@H](C)N(c4nc(=O)n(C)c5c4nc(CC#N)n5C)C[C@H]3C)cc2n1 (single isomer, unassigned) [Compound A49b] | 6.40 | < 3.82
22 | CCn1c(CC#N)nc2c(N3C[C@@H](C)N(C(C)c4ccc5c(c4)OC(C)(C)C5=O)C[C@@H]3C)nc(=O)n(C)c21 (stereo partly drawn) [Compound A179, 2-(6-((2S,5R)-4-(1-(2,2-dimethyl-3-oxo-2,3-dihydrobenzofuran-6-yl)ethyl)-2,5-dimethylpiperazin-1-yl)-9-ethyl-3-methyl-2-oxo-3,9-dihydro-2H-purin-8-yl)acetonitrile] | 8.22 | 4.16
